The text below walks through data of US4894388A, “Glycosidase inhibitors and use thereof” (priority 1988, dated 1990).

Common to all, as to type: biochemical
The test system of test [1] is N-acetyl hexosaminidase. Description: Inhibition of N-acetyl hexosaminidase in human liver extract. To be noted: 1 mM inhibitor; 0.5 mM substrate; optimal pH; mean of 2-4 determinations. The method, then:
(§1) Post mortem human liver, which had been stored at -20° C. until required was homogenized in deionized water (50%, w/v) in a Potter-Elvehjem homogenizer and then centrifuged at 37,000 g for 30 min in an MSE 18 centrifuge. The resultant supernatant was used as the source of enzymic activities.
(§2) The glycosidase activities in an extract of normal human liver were assayed by using the appropriate fluorigenic 4-methylumbelliferyl glycoside substrate (Koch-Light, Haverhill, Suffolk, U.K.) with a concentration of 0.5 mM at the optimal pH of each enzyme [Burditt et al., Clin. Chim. Acta 140, 201-209 (1980)]. Human liver acidic (lysomal) and neutral (cystosolic) α-D-mannosidases were assayed similarly at their pH-optima, of 4.0 and 6.5, respectively, after separation by affinity chromatography on concanavalin A-Sepharose® (Pharmacia Ltd, Milton Keynes, Bucks, U.K.) [Phillips et al., Biochem. J. 153, 579-587 (1976)]. The residual intermediate (Golgi) α-mannosidase II activity in extracts of fibroblasts from a patient with the lysosomal storage disease, mannosidosis, was assayed at pH 5.75 using the synthetic substrate (Burditt et al, Ibid.). The specificity of the inhibitors was determined by assaying the glycosidases in the presence and absence of a 1 mM solution of each compound. The nature of the inhibition and the value of Ki were determined using the Dixon graphical procedure.
(§3) Enzymic activities were measured in the presence and absence of 1 mM inhibitor. Inhibition (%) was calculated as the fraction of activity lost in the presence of inhibitor. The values are means of two to four independent determinations.

For test [2], the target named is T1, α-L-fucosidase (Homo sapiens, UniProt P04066).
T1 construct: The glycosidase activities in an extract of normal human liver were assayed; from tissue; host or cells: post mortem human liver, 37,000 g supernatant
T1 sequence (P04066 32-466): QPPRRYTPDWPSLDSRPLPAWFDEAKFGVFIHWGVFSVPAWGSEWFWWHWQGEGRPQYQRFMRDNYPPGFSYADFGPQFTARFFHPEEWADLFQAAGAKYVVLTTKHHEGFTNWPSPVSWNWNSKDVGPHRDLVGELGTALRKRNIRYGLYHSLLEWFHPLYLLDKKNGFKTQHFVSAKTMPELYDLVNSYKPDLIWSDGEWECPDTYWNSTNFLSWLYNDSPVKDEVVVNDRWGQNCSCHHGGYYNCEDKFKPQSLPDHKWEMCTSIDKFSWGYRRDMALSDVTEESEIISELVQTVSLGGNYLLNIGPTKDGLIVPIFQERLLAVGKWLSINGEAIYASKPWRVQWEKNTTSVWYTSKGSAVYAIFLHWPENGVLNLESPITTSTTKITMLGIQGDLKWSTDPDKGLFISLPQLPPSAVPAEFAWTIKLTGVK
Description: Inhibition of α-L-fucosidase in human liver extract. To be noted: for inhibition at 1000 µM: 1 mM inhibitor, 0.5 mM substrate, optimal pH, mean of 2-4 determinations. The method, then:
The fraction of activity lost in the presence of the inhibitor was calculated for each pH; =α-L-fucosidase activity; o=inhibition (%).
as §1, §2, §3

Test [3] addresses T2, Golgi α-D-mannosidase II (Homo sapiens, UniProt Q16706).
T2 construct: activity in extracts of fibroblasts from a patient; endogenous in cells; host or cells: fibroblasts from a mannosidosis patient (extract)
T2 sequence (Q16706 1-1144): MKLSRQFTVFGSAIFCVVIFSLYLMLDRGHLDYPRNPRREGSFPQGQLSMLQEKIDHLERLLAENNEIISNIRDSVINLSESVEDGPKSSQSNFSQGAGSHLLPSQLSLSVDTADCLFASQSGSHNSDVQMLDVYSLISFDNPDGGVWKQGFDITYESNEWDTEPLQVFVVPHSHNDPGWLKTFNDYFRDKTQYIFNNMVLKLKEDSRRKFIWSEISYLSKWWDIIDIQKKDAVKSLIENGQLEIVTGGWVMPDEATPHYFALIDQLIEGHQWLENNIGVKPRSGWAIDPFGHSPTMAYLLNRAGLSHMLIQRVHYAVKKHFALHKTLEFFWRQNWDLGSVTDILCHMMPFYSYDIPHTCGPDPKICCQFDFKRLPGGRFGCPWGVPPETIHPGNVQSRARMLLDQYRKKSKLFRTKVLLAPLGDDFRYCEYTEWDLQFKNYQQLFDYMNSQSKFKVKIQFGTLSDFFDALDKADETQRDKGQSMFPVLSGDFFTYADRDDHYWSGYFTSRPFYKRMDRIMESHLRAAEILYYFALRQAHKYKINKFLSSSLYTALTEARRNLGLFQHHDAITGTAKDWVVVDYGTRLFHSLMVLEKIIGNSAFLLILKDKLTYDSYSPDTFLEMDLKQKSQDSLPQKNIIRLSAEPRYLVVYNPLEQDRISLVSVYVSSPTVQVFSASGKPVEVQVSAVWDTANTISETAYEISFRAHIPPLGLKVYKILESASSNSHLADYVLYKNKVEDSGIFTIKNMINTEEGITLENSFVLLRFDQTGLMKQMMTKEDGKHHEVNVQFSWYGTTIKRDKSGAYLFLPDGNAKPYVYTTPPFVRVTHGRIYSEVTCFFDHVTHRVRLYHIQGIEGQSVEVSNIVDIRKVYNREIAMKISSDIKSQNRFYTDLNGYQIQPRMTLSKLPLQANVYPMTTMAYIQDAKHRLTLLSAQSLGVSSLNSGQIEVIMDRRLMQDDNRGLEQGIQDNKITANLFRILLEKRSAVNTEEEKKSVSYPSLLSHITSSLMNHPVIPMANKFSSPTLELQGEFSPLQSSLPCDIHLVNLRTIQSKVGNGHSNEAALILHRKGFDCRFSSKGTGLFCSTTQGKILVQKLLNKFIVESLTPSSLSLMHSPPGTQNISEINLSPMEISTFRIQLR
In words: Inhibition of Golgi α-D-mannosidase II in extracts of fibroblasts from a mannosidosis patient. To be noted: for inhibition at 1000 µM: 1 mM inhibitor, pH 5.75, mean of 2-4 determinations. The method, then:
as §2, §3

The term inhibition denotes the drop in the measured response relative to a control, in per cent. A high value points to a response far below the control. `OC[C@H](O)[C@@H]1NC[C@@H](O)[C@H]1O` [DIA, 1,4-dideoxy-1,4-imino-L-allitol]: the “Inhibition (%)” value in test [1] is 42%. The inhibition at 1000 µM amounted to 60% in test [2] and 95% in test [3]. The “inhibition of α-D-mannosidase II (in words)” value in test [3] is “potent inhibitor”.
As for `CN1C[C@@H](O)[C@@H](O)[C@@H]1[C@@H](O)CO` [N-methyl DIA, N-methyl-1,4-dideoxy-1,4-imino-L-allitol], the “Inhibition (%)” value in test [1] is on record as 37%. Besides, the inhibition at 1000 µM was found to be 28% in test [2] and 33% in test [3].
In general, Ki refers to the equilibrium dissociation constant of an inhibitor or competing ligand from its target. A lower Ki goes with higher affinity. Take `OC[C@H](O)[C@H]1[C@H](O)[C@H](O)CN1Cc1ccccc1` [N-benzyl DIA, N-benzyl-1,4-dideoxy-1,4-imino-L-allitol]: the “Inhibition (%)” value in test [1] amounted to 15%. The values for the inhibition at 1000 µM in test [2] and in test [3] were 74% and 0%, respectively. In addition, the “nature of the inhibition” value in test [2] (Dixon graphical procedure) is “competitive”. The pH-dependence of inhibition entry in test [2] (FIG. 1) is reported as “pH-dependent”. This molecule also registered a Ki in test [2] (pH 5.5, Dixon graphical procedure) of 50 µM.
